Data from patent publication US5886033A, “Use of isoxazole and crotonamide derivatives for the treatment of carcinomatous disorders” (Hoechst Aktiengesellschaft, priority 1995, dated 1999).
Structures can show the parent of a compound that is named as a salt. Where two headings read alike, the source gives them in different places.

Tests used:
[1] = test system: HUV-EC-C; assay: Inhibition of proliferation (MTT test), HUV-EC-C / HUVEC endothelial cells; format: cell-based, human
Experimental: (§1) Inhibition of the proliferation of tumor cells (MTT test)
(§2) 1×10^4 cells per well are inoculated into a 96-well microtiter plate. After 24 h, the test substances are added at various concentrations. Each group consists of 4 wells, the control is only incubated with medium. After 65 h, 50 μl of MTT (3-(4,5-dimethyl-2-thiazolyl)-2,5-diphenyl-2H-tetrazolium bromide; 2.5 mg/ml in PBS) are added and, after 7 h, the supernatant is removed. The color formed by the living cells is dissolved by addition of 100 μl of dimethyl sulfoxide/well. The extinction is measured at 492 nm for each well with the aid of a Multiscan photometer 340 CC (Flow). The cell lines used are obtainable as follows from the American Type Culture Collection: HUV-EC-C is ATCC CRL 1730; A-172 is ATCC CRL 1620; L 1210 is ATCC CCL 219; LoVo is ATCC CCL 229; C 6 is ATCC CCL 107 and a rat glioblastoma cell line.
(§3) The mean value is formed from the 4 wells of a group and the IC50 values are calculated from the dose-response curve using the Software 3.0 (Erithacus Software Ltd.).

[2] = test system: C 6; assay: Inhibition of the proliferation of tumor cells (MTT test), C 6; format: cell-based, rat
Experimental: as §1, §2, §3

[3] = test system: A-172; assay: Inhibition of the proliferation of tumor cells (MTT test), A-172; format: cell-based, human
Experimental: as §1, §2, §3

[4] = test system: LoVo cells; assay: Inhibition of the proliferation of tumor cells (MTT test), LoVo; format: cell-based, human
Experimental: as §1, §2, §3

[5] = test system: LoVo cells; assay: MTT test on LoVo cells with added uridine; format: cell-based, human; conditions: for IC50: Homo sapiens, LoVo, Table 3
Experimental: as §2, §3
The procedure is as in Example 6; uridine is additionally added to the batches.

[6] = test system: in vitro cell lines; conditions: Peters et al., 1987; cited from earlier work
[7] = test system: L1210; assay: Inhibition of the proliferation of tumor cells (MTT test), L1210; format: cell-based; conditions: Table 2; L1210, leukemia (mouse)
Experimental: as §1, §2, §3

[8] = test system: plasma uridine; conditions: clinical investigations, cited from earlier work
[9] = test system: pyrimidine and purine nucleotides; conditions: cited from earlier work
[10] = target: T1, Human DHODH (spleen) (Homo sapiens, UniProt Q02127); assay: Human DHODH (spleen) enzyme activity; format: biochemical
T1 construct: Human DHODH (spleen) enzyme activity; from tissue; host or cells: human spleen

[11] = Homo sapiens, HUVEC, Table 4, HUVEC, read-out: HUVEC (tested as described in Example 6, MTT test)
[12] = Rattus norvegicus, C6, Table 4, C 6, read-out: C 6 (tested as described in Example 6, MTT test)
[13] = Homo sapiens, A 172, Table 4, A172, read-out: A172 (tested as described in Example 6, MTT test)
[14] = Homo sapiens, Table 4, read-out: LoVo (tested as described in Example 6, MTT test)
[15] = Homo sapiens, Endothelial cell, Table 2, HUV-EC-C, endothelial cell, read-out: MTT Test IC50
[16] = Rattus norvegicus, C6, Table 2, C 6, rat glioblastoma, read-out: MTT Test IC50
[17] = Homo sapiens, A 172, Table 2, A-172, glioblastoma, read-out: MTT Test IC50
[18] = Homo sapiens, Table 2, colonic carcinoma, no uridine, read-out: MTT Test IC50
[19] = human DHODH (spleen), read-out: DHODH IC50

T1 sequence (Q02127 whole entry): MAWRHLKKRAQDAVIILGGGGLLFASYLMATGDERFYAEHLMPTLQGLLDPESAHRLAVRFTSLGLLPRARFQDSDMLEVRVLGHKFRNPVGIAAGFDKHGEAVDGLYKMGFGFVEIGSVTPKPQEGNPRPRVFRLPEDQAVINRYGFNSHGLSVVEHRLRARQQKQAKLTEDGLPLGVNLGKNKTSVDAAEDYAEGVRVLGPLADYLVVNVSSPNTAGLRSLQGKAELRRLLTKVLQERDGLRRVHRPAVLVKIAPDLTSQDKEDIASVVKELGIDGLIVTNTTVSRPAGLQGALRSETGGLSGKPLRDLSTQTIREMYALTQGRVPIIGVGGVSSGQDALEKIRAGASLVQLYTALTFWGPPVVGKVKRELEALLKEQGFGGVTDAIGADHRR

SMILES	IC50 [1, 11]	IC50 [2, 12]	IC50 [3, 13]	IC50 [4, 14]	other results
C=CC(O)=C(C#N)C(=O)Nc1ccc(C(F)(F)F)cc1 [Compound 9]	> 400 µM	21 µM	193 µM	400 µM	
Cc1c(-c2ccc(-c3ccccc3F)cc2)nc2ccc(F)cc2c1C(=O)O [Brequinar, reference compound]					IC50 ([5]; uridine 0 μM): 0.388 µM; IC50 ([5]; uridine 1000 μM): 129 µM; change of the IC50 value on the LoVo cell line on addition of increasing amounts of uridine ([5]; MTT test, in words): massive increase in the IC50 value; inhibition of growth of in vitro cell lines, reversal by nucleosides [6]: can be abolished by addition of uridine or cytidine, but not by deoxythymidine or deoxycytidine; IC50 [7]: 1 µM; IC50 [1, 15]: 9.4 µM; IC50 [2, 16]: 9 µM; IC50 [3, 17]: 0.2 µM; plasma uridine values ([8]; Peters et al., 1988): significantly lowers the plasma uridine values; correlation of in vivo uridine level effects with bone marrow and gastrointestinal tract toxicity [8]: correlated with the bone marrow and gastrointestinal tract toxicity; IC50 [4, 18]: 0.388 µM; depletion of nucleotides ([9]; Schwartsmann et al., 1988): depletion of pyrimidine ribo- and deoxyribonukleotides, but not of purine nucleotides; depletion of dTTP and dCTP ([9]; relative to UTP and CTP, uridine addition): proportional to that of UTP and CTP and can be prevented by the addition of uridine
N#CC(C(=O)Nc1ccc(OC(F)(F)F)cc1)=C(O)C1CC1 [Compound 10]	186 µM	4 µM	25 µM	21 µM	
C=CCC(O)=C(C#N)C(=O)Nc1ccc(SC(F)(F)F)cc1 [Compound 19]	135 µM	32 µM	118 µM	171 µM	
N#CC(C(=O)Nc1ccc(C#N)cc1)=C(O)C1CC1 [Compound 2, 2-Cyano-3-cyclopropyl-3-hydroxyacrylic acid (4-cyanophenyl)amide sodium salt]	360 µM	20 µM	169 µM	392 µM	IC50 ([5]; uridine 0 μM): 359 µM; IC50 ([5]; uridine 1000 μM): 560 µM; IC50 [7]: 6.1 µM; IC50 [1, 15]: 360 µM; IC50 [2, 16]: 20 µM; IC50 [3, 17]: 169 µM; IC50 [4, 18]: 392 µM; IC50 [10, 19]: 0.625 µM
N#CC(C(=O)Nc1ccc(C(F)(F)F)cn1)=C(O)C1CC1 [Compound 23]	> 400 µM	7 µM	94 µM	75 µM	
N#CC(C(=O)Nc1ccc(Cl)cc1)=C(O)C1CC1 [Compound 6]	> 400 µM	11 µM	25 µM	24 µM	
N#CC(C(=O)Nc1ccc(SC(F)(F)F)cc1)=C(O)C1CC1 [Compound 15]	98 µM	2 µM	13 µM	21 µM	
N#CC(C(=O)Nc1ccc(Oc2ccc(F)cc2)cc1)=C(O)C1CCC1 [Compound 18]	159 µM	84 µM	190 µM	110 µM	
C=CCC(O)=C(C#N)C(=O)Nc1ccc(F)cc1 [Compound 22]	> 400 µM	103 µM	> 400 µM	149 µM	
Cc1cc(NC(=O)C(C#N)=C(O)C2CC2)ccc1C(F)(F)F [Compound 14]					IC50 ([1]; Table 4, HUVEC, read-out: HUVEC (tested as described in Example 6, MTT test)): 197 µM; IC50 ([2]; Table 4, C 6, read-out: C 6 (tested as described in Example 6, MTT test)): 7 µM; IC50 ([3]; Table 4, A172, read-out: A172 (tested as described in Example 6, MTT test)): 58 µM; IC50 ([4]; Table 4, read-out: LoVo (tested as described in Example 6, MTT test)): 61 µM
N#CC(C(=O)Nc1ccc(Oc2ccccc2)cc1)=C(O)C1CC1 [Compound 8]	138 µM	18 µM	28 µM	13 µM	
Cc1cc(NC(=O)C(C#N)=C(O)C2CC2)ccc1F [Compound 13]	> 400 µM	13 µM	32 µM	15 µM	
Cc1cc(NC(=O)C(C#N)=C(O)C2CC2)ccc1C(F)(F)F [Compound 12]	322 µM	6 µM	43 µM	55 µM	IC50 [10, 19]: 0.539 µM
N#CC(C(=O)Nc1ccc(-c2ccccc2)cc1)=C(O)C1CC1 [Compound 24]					IC50 ([1]; Homo sapiens, HUVEC, read-out: HUVEC (tested as described in Example 6, MTT test)): 74 µM; IC50 ([2]; Rattus norvegicus, C6, read-out: C 6 (tested as described in Example 6, MTT test)): 34 µM; IC50 ([3]; Homo sapiens, A 172, read-out: A172 (tested as described in Example 6, MTT test)): 22 µM; IC50 ([4]; Homo sapiens, read-out: LoVo (tested as described in Example 6, MTT test)): 6 µM
Cc1cc(Cl)ccc1Oc1ccc(NC(=O)C(C#N)=C(O)C2CC2)cc1 [Compound 16]	299 µM	36 µM	17 µM	7 µM	
C=CCCC(O)=C(C#N)C(=O)Nc1ccc(C(F)(F)F)cc1 [Compound 17]	127 µM	186 µM	55 µM	75 µM	
C=CCC(O)=C(C#N)C(=O)Nc1ccc(C(F)(F)F)cc1 [Compound 11]	187 µM	57 µM	55 µM	160 µM	
C#CCCC(O)=C(C#N)C(=O)Nc1ccc(Cl)cn1 [Compound 27]	> 400 µM	126 µM	142 µM	153 µM	
C=CCCC(O)=C(C#N)C(=O)Nc1ccc(C)c(C)c1 [Compound 21]	339 µM	69 µM	63 µM	27 µM	
CC=CC=CC(O)=C(C#N)C(=O)Nc1ccc(C(F)(F)F)cc1 [Compound 26]	378 µM	24 µM	200 µM	146 µM	
C#CCCC(O)=C(C#N)C(=O)Nc1ccc(C(F)(F)F)cc1 [Compound 1, N-(4-Trifluoromethylphenyl)-2-cyano-3-hydroxyhept-2-en-6-yne-carboxamide sodium salt]	164 µM	68 µM	78 µM	137 µM	IC50 ([5]; uridine 0 μM): 168 µM; IC50 ([5]; uridine 1000 μM): 278 µM; IC50 [7]: 9.1 µM; IC50 [1, 15]: 164 µM; IC50 [2, 16]: 68 µM; IC50 [3, 17]: 78 µM; IC50 [4, 18]: 137 µM; IC50 [10]: 0.292 µM
CC(C)=CCCC(O)=C(C#N)C(=O)Nc1ccc(C(F)(F)F)cc1 [Compound 25]	301 µM	87 µM	95 µM	306 µM	
N#CC(C(=O)Nc1ccc(Oc2ccc(F)cc2)cc1)=C(O)C1CCCC1 [Compound 20]	> 400 µM	182 µM	158 µM	119 µM	
N#CC(C(=O)Nc1ccc(C(F)(F)F)cc1)=C(O)C1CC1 [Compound 5]	94 µM	5 µM	30 µM	34 µM	
N#CC(C(=O)Nc1ccc(Br)cc1)=C(O)C1CC1 [Compound 7]	267 µM	11 µM	37 µM	37 µM	
